Source: PubChem BioAssay (NCI)
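Exposure lasted 48 hours, with cells grown in 96-well plates and compounds tested at five concentrations. GI50 marks 50% less growth. TGI is the concentration that stops growth completely.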

Experiments:
Assay in all cases: DTP human tumour cell line panel, 48 h
[1] = system: MDA-MB-231 breast
[2] = system: MDA-MB-435
[3] = system: HT29 colon
[4] = system: 786-0 renal
[5] = system: OVCAR-8 ovarian
[6] = system: A549 NSCLC
[7] = system: OVCAR-4 ovarian
[8] = system: IGROV1 ovarian

COc1cccc(/C=C/C(=O)c2cc3c(N)c(C(=O)Nc4ccccc4)sc3nc2C)c1
GI50 [1]: 1.79 µM
TGI [1]: 11.7 µM
GI50 [2]: 0.989 µM
TGI [2]: 2.86 µM
GI50 [3]: 1.21 µM
TGI [3]: 3.42 µM
GI50 [4]: 0.802 µM
TGI [4]: 1.72 µM
GI50 [5]: 1.63 µM
TGI [5]: > 50 µM
GI50 [6]: 1.51 µM
TGI [6]: 6.23 µM
GI50 [7]: 1.78 µM
TGI [7]: > 50 µM
GI50 [8]: 0.954 µM
TGI [8]: 2 µM

COc1ccc(CC2OC3(CCCCC3)CC3CCCCN32)cc1 (centres undefined)
TGI [1]: > 100 µM
TGI [2]: > 100 µM
TGI [3]: > 100 µM
TGI [4]: > 100 µM
TGI [5]: > 100 µM
TGI [6]: > 100 µM
TGI [7]: > 100 µM
TGI [8]: > 100 µM

Oc1ccc(Cl)cc1N=Nc1c(O)ccc2ccccc12
TGI [1]: > 100 µM
TGI [2]: > 100 µM
TGI [3]: > 100 µM
TGI [4]: > 100 µM
TGI [5]: > 100 µM
TGI [6]: > 100 µM
TGI [7]: > 100 µM
TGI [8]: > 100 µM

CCN1C(=O)N(CC)C2C1NN=c1s/c(=C\c3ccc(Br)cc3)c(=O)n12 (centres undefined)
GI50 [1]: 0.306 µM
TGI [1]: > 76.6 µM
GI50 [2]: 0.0252 µM
TGI [2]: 0.0706 µM
GI50 [3]: 0.0757 µM
TGI [3]: > 100 µM
GI50 [4]: 0.163 µM
TGI [4]: > 100 µM
GI50 [5]: 0.416 µM
TGI [5]: > 100 µM
GI50 [6]: 0.313 µM
TGI [6]: > 100 µM
GI50 [7]: 0.388 µM
TGI [7]: > 100 µM
GI50 [8]: 0.275 µM
TGI [8]: > 82.2 µM

Nc1cc2c3ccccc3ccc2c2ccccc12
GI50 [1]: 7.36 µM
TGI [1]: > 100 µM
GI50 [2]: > 56.1 µM
TGI [2]: > 100 µM
GI50 [3]: > 100 µM
TGI [3]: > 100 µM
GI50 [4]: > 100 µM
TGI [4]: > 100 µM
GI50 [5]: > 44.6 µM
TGI [5]: > 100 µM
GI50 [6]: 23.9 µM
TGI [6]: > 100 µM
GI50 [7]: > 22.5 µM
TGI [7]: > 100 µM
GI50 [8]: > 100 µM
TGI [8]: > 100 µM

NS(=O)(=O)c1ccc(NC(=O)Nc2cccc3ccccc23)cc1
TGI [1]: 41.1 µM
TGI [2]: > 100 µM
TGI [3]: > 100 µM
TGI [4]: 38 µM
TGI [5]: 40.6 µM
TGI [6]: > 100 µM
TGI [7]: > 100 µM
TGI [8]: > 100 µM

COC(=O)C1(N2CCOCC2)CCC([C@@H](c2ccccc2)C(C)[N+](=O)[O-])C1 (some centres undefined)
TGI [1]: > 100 µM
TGI [2]: > 100 µM
TGI [3]: > 100 µM
TGI [4]: > 100 µM
TGI [5]: > 100 µM
TGI [6]: > 100 µM
TGI [7]: > 100 µM

OCC1OC(n2cnc3cc(Cl)c(Cl)cc32)C(O)C1O (centres undefined)
GI50 [1]: 21.2 µM
TGI [1]: 60.1 µM
GI50 [2]: 24 µM
TGI [2]: 82.6 µM
GI50 [3]: 33.6 µM
TGI [3]: > 100 µM
GI50 [4]: 23.6 µM
TGI [4]: > 68.3 µM
GI50 [5]: 34.7 µM
TGI [5]: > 72.2 µM
GI50 [6]: 18.8 µM
TGI [6]: > 72.4 µM
GI50 [7]: 62.8 µM
TGI [7]: > 100 µM
GI50 [8]: 12.5 µM
TGI [8]: 34.4 µM

C[C@H]1O[C@@H](O[C@H]2[C@@H](O)C[C@H](O[C@H]3[C@@H](O)C[C@H](O[C@H]4CC[C@]5(C)C6CC[C@]7(C)[C@@H](C8=CC(=O)OC8)CC[C@]7(O)C6CC[C@@H]5C4)O[C@@H]3C)O[C@@H]2C)C[C@H](O)[C@@H]1O (some centres undefined)
GI50 [1]: 0.0621 µM
TGI [1]: 0.353 µM
GI50 [2]: 0.017 µM
TGI [2]: 0.0666 µM
GI50 [3]: 0.0193 µM
TGI [3]: 0.0653 µM
GI50 [4]: 0.0172 µM
TGI [4]: 0.0596 µM
GI50 [5]: 0.0178 µM
TGI [5]: 0.0648 µM
GI50 [6]: 0.00776 µM
TGI [6]: 0.0155 µM
TGI [7]: 0.0732 µM
GI50 [8]: 0.0261 µM
TGI [8]: 2.22 µM

O=C(O)[C@@H](Cc1ccccc1)NS(=O)(=O)c1ccc(-c2ccccc2)cc1
GI50 [1]: > 100 µM
TGI [1]: > 100 µM
GI50 [2]: > 100 µM
TGI [2]: > 100 µM
GI50 [3]: > 100 µM
TGI [3]: > 100 µM
GI50 [4]: > 100 µM
TGI [4]: > 100 µM
GI50 [5]: > 100 µM
TGI [5]: > 100 µM
GI50 [6]: > 100 µM
TGI [6]: > 100 µM
GI50 [7]: > 100 µM
TGI [7]: > 100 µM
GI50 [8]: > 100 µM
TGI [8]: > 100 µM

Cc1c(-c2c(F)cc(C(N)=O)c3[nH]c4c(c23)CC[C@H](C(C)(C)O)C4)cccc1-n1c(=O)c2cccc(F)c2n(C)c1=O
GI50 [1]: 4.34 µM
TGI [1]: > 100 µM
GI50 [2]: 3.81 µM
TGI [2]: > 100 µM
GI50 [3]: 0.864 µM
TGI [3]: > 100 µM
GI50 [4]: 3.54 µM
TGI [4]: > 100 µM
GI50 [5]: 4.16 µM
TGI [5]: > 100 µM
GI50 [6]: 2.05 µM
TGI [6]: > 100 µM
GI50 [7]: 6.31 µM
TGI [7]: > 100 µM
GI50 [8]: 3.19 µM
TGI [8]: > 100 µM

N/C(=N/O)NOCCC(N)C(=O)O (centres undefined)
GI50 [1]: > 100 µM
TGI [1]: > 100 µM
GI50 [2]: > 100 µM
TGI [2]: > 100 µM
GI50 [3]: > 100 µM
TGI [3]: > 100 µM
GI50 [4]: > 100 µM
TGI [4]: > 100 µM
GI50 [5]: > 100 µM
TGI [5]: > 100 µM
GI50 [6]: > 100 µM
TGI [6]: > 100 µM
GI50 [7]: > 100 µM
TGI [7]: > 100 µM
GI50 [8]: > 100 µM
TGI [8]: > 100 µM

Cc1cc(C2CC(O)C(CO)O2)c(Br)cc1Br (centres undefined)
GI50 [1]: 58.5 µM
TGI [1]: > 100 µM
GI50 [2]: > 100 µM
TGI [2]: > 100 µM
GI50 [3]: 99.1 µM
TGI [3]: > 100 µM
GI50 [4]: > 100 µM
TGI [4]: > 100 µM
GI50 [5]: > 100 µM
TGI [5]: > 100 µM
GI50 [6]: > 100 µM
TGI [6]: > 100 µM
GI50 [8]: 33.8 µM
TGI [8]: > 100 µM

c1ccc2cc(Cn3c(-c4cccc5ccccc45)[n+](Cc4ccc5ccccc5c4)c4c5ccccc5c5ccccc5c43)ccc2c1
GI50 [2]: 0.359 µM
TGI [2]: 1.38 µM
GI50 [4]: 0.308 µM
TGI [4]: 1.7 µM
GI50 [5]: 0.332 µM
TGI [5]: 1.92 µM
GI50 [7]: 0.324 µM
TGI [7]: 1.41 µM

CN(N=O)N1C(=O)SCC(c2ccccc2)(c2ccccc2)C1=O
TGI [1]: > 100 µM
TGI [2]: 73.3 µM
TGI [3]: > 100 µM
TGI [4]: > 100 µM
TGI [5]: 60.2 µM
TGI [6]: > 100 µM

COC1C[C@H](O[C@@H]2C[C@H](O[C@@H]3C[C@H](O[C@@H]4C(=O)c5c(cc6cc(O[C@H]7C[C@@H](O[C@H]8C[C@@H](O)[C@H](O)C(C)O8)[C@H](O)C(C)O7)c(C)c(O)c6c5O)C[C@H]4C(OC)C(=O)[C@@H](O)[C@@H](C)O)OC(C)[C@H]3O)OC(C)[C@@H]2O)OC(C)[C@@H]1O (some centres undefined)
GI50 [2]: 0.0949 µM
TGI [2]: 0.45 µM
GI50 [3]: 0.0974 µM
TGI [3]: > 32.5 µM
GI50 [4]: 0.116 µM
TGI [4]: > 32.5 µM
GI50 [5]: 0.108 µM
TGI [5]: > 32.5 µM
GI50 [6]: 0.185 µM
TGI [6]: > 32.5 µM
GI50 [7]: 0.134 µM
TGI [7]: 2.76 µM

[N-]=[N+]=NCCCn1c2c(c3ccccc3c1=O)C(=O)c1cc3c(cc1-2)OCO3
GI50 [1]: > 100 µM
TGI [1]: > 100 µM
GI50 [2]: > 100 µM
TGI [2]: > 100 µM
GI50 [4]: 31.9 µM
TGI [4]: > 100 µM
GI50 [5]: > 100 µM
TGI [5]: > 100 µM
GI50 [6]: > 100 µM
TGI [6]: > 100 µM
GI50 [8]: 47.3 µM
TGI [8]: > 100 µM

Cc1cc(S(=O)(=O)Nc2nc3ccccc3s2)c(SCc2ccccc2)cc1Cl
GI50 [1]: 16.9 µM
TGI [1]: 37.7 µM
GI50 [2]: 15.7 µM
TGI [2]: 31.7 µM
GI50 [4]: 16.9 µM
TGI [4]: 32.1 µM
GI50 [5]: 17 µM
TGI [5]: 44.9 µM
GI50 [6]: 13.9 µM
TGI [6]: 31.8 µM
GI50 [7]: 13.2 µM
TGI [7]: 51.8 µM
GI50 [8]: 27.4 µM
TGI [8]: 94.3 µM
